Measurements taken from patent US20130274338A1, “PHARMACEUTICAL COMPOSITIONS COMPRISING DGLA, 15-OHEPA, AND/OR 15-HETRE AND METHODS OF REDUCING SEBUM PRODUCTION USING SAME” (priority 2012, published 2013).

Tested on: P. acnes
Test: Agar dilution method, growth of P. acnes and MIC, combinations with a fatty acid spike
Assay type: cell-based, Propionibacterium acnes
Design: key to Growth Index Plate 1 / Growth Index Plate 2 / Growth Index Plate 3 / Growth Index Avg: +++: confluent growth (comparable to control); ++: less confluent growth; +: marked reduction in growth to multiple tiny, single colonies; −: no growth present
Procedure: Several compounds including fatty acids such as DGLA, 15-OHEPA, and 15-HETrE were tested to determine their capacity to inhibit the growth of P. acnes. In an exemplary method, an agar dilution method was used to determine the minimum inhibitory concentration (MIC) of each tested compound. Briefly, the agar dilution method involved preparing a series of concentrations of each compound (e.g., nicotinamide, benzoyl peroxide, adapalene, metronidazole, DGLA, 15-OHEPA, and 15-HETrE) in a Reinforced Clostridial Agar (RCA) media that facilitates growth of P. acnes under anaerobic conditions. An inoculum of P. acnes was prepared by incubation of P. acnes for approximately seven days at 35-37° C. to achieve a ≧1.0 OD600 inoculum of P. acnes in RCM broth. A portion of this inoculum was then added to the surface of each plate as a 10 μL spot and incubated at 35-37° C. for 72 hours or more. Growth of P. acnes was then observed and compared to control plates in which no compound has been added, and positive inhibition plates prepared with erythromycin. […] The growth of P. acnes in the presence of nicotinamide, benzoyl peroxide, adapalene, metronidazole, DGLA, 15-OHEPA, and 15-HETrE was determined with varying concentrations of the compound (see, Table 2). Next, the MIC was determined as the concentration at which a marked reduction (+) occurs in the appearance of growth on the test plate (as per Clinical and Laboratory Standards Institute M11-A7).
The compounds tested singly in Example 1 were tested in combination with one another to determine the capacity of the combination to inhibit the growth of P. acnes. In an exemplary method, the MIC was determined for each of the combination as described in Example 1. Briefly, test combinations included DGLA with nicotinamide, benzoyl peroxide, adapalene, or metronidazole; 15-HETrE with nicotinamide, benzoyl peroxide, adapalene, or metronidazole; and 15-OHEPA with nicotinamide, benzoyl peroxide, adapalene, or metronidazole. The tables below show the growth of P. acnes in the presence of 0.4 or 1.0 mg/mL DGLA with varying concentrations of nicotinamide, benzoyl peroxide, adapalene, or metronidazole (Table 3); the growth of P. acnes in the presence of 0.01 or 0.05 mg/mL 15-HETrE with varying concentrations of nicotinamide, benzoyl peroxide, adapalene, or metronidazole (Table 5); and the growth of P. acnes in the presence of 0.5 or 0.1 mg/mL 15-OHEPA with varying concentrations of nicotinamide, benzoyl peroxide, adapalene, or metronidazole (Table 7).

[1] = compound at 0.2 mg/mL + 0.01 mg/mL 15-HETrE
[2] = compound at 0.2 mg/mL + 0.05 mg/mL 15-HETrE
[3] = compound at 0.2 mg/mL + 0.05 mg/mL 15-OHEPA
[4] = compound at 0.2 mg/mL + 0.1 mg/mL 15-OHEPA
[5] = compound at 0.2 mg/mL + 0.4 mg/mL dGLA
[6] = compound at 0.2 mg/mL + 1.0 mg/mL dGLA
[7] = compound at 0.4 mg/mL + 0.01 mg/mL 15-HETrE
[8] = compound at 0.4 mg/mL + 0.05 mg/mL 15-HETrE
[9] = compound at 0.4 mg/mL + 0.05 mg/mL 15-OHEPA
[10] = compound at 0.4 mg/mL + 0.1 mg/mL 15-OHEPA
[11] = compound at 0.4 mg/mL + 0.4 mg/mL dGLA
[12] = compound at 0.4 mg/mL + 1.0 mg/mL dGLA
[13] = compound at 0.6 mg/mL + 0.01 mg/mL 15-HETrE
[14] = compound at 0.6 mg/mL + 0.05 mg/mL 15-HETrE
[15] = compound at 0.6 mg/mL + 0.05 mg/mL 15-OHEPA
[16] = compound at 0.6 mg/mL + 0.1 mg/mL 15-OHEPA
[17] = compound at 0.6 mg/mL + 0.4 mg/mL dGLA
[18] = compound at 0.6 mg/mL + 1.0 mg/mL dGLA
[19] = compound at 0.8 mg/mL + 0.01 mg/mL 15-HETrE
[20] = compound at 0.8 mg/mL + 0.05 mg/mL 15-HETrE
[21] = compound at 0.8 mg/mL + 0.05 mg/mL 15-OHEPA
[22] = compound at 0.8 mg/mL + 0.1 mg/mL 15-OHEPA
[23] = compound at 0.8 mg/mL + 0.4 mg/mL dGLA
[24] = compound at 0.8 mg/mL + 1.0 mg/mL dGLA
[25] = compound at 1.0 mg/mL + 0.01 mg/mL 15-HETrE
[26] = compound at 1.0 mg/mL + 0.05 mg/mL 15-HETrE
[27] = compound at 1.0 mg/mL + 0.05 mg/mL 15-OHEPA
[28] = compound at 1.0 mg/mL + 0.1 mg/mL 15-OHEPA
[29] = compound at 1.0 mg/mL + 0.4 mg/mL dGLA
[30] = compound at 1.0 mg/mL + 1.0 mg/mL dGLA

O=C(OOC(=O)c1ccccc1)c1ccccc1 [Benzoyl Peroxide]
Growth Index Avg [1]: +++
Growth Index Plate 1 [1]: +++
Growth Index Plate 2 [1]: +++
Growth Index Plate 3 [1]: +++
Growth Index Avg [2]: −
Growth Index Plate 1 [2]: −
Growth Index Plate 2 [2]: −
Growth Index Plate 3 [2]: −
Growth Index Avg [3]: +++
Growth Index Plate 1 [3]: +++
Growth Index Plate 2 [3]: +++
Growth Index Plate 3 [3]: +++
Growth Index Avg [4]: −
Growth Index Plate 1 [4]: −
Growth Index Plate 2 [4]: −
Growth Index Plate 3 [4]: −
Growth Index Avg [5]: +++
Growth Index Plate 1 [5]: +++
Growth Index Plate 2 [5]: +++
Growth Index Plate 3 [5]: +++
Growth Index Avg [6]: ++
Growth Index Plate 1 [6]: ++
Growth Index Plate 2 [6]: ++
Growth Index Plate 3 [6]: +
Growth Index Avg [7]: +++
Growth Index Plate 1 [7]: +++
Growth Index Plate 2 [7]: +++
Growth Index Plate 3 [7]: +++
Growth Index Avg [8]: −
Growth Index Plate 1 [8]: −
Growth Index Plate 2 [8]: −
Growth Index Plate 3 [8]: −
Growth Index Avg [9]: ++
Growth Index Plate 1 [9]: ++
Growth Index Plate 2 [9]: ++
Growth Index Plate 3 [9]: ++
Growth Index Avg [10]: −
Growth Index Plate 1 [10]: −
Growth Index Plate 2 [10]: −
Growth Index Plate 3 [10]: −
Growth Index Avg [11]: −
Growth Index Plate 1 [11]: +
Growth Index Plate 2 [11]: −
Growth Index Plate 3 [11]: −
Growth Index Avg [12]: −
Growth Index Plate 1 [12]: −
Growth Index Plate 2 [12]: +
Growth Index Plate 3 [12]: −
Growth Index Avg [13]: ++
Growth Index Plate 1 [13]: ++
Growth Index Plate 2 [13]: ++
Growth Index Plate 3 [13]: ++
Growth Index Avg [14]: −
Growth Index Plate 1 [14]: −
Growth Index Plate 2 [14]: −
Growth Index Plate 3 [14]: −
Growth Index Avg [15]: +
Growth Index Plate 1 [15]: +
Growth Index Plate 2 [15]: +
Growth Index Plate 3 [15]: +
Growth Index Avg [16]: −
Growth Index Plate 1 [16]: −
Growth Index Plate 2 [16]: −
Growth Index Plate 3 [16]: −
Growth Index Avg [17]: −
Growth Index Plate 1 [17]: −
Growth Index Plate 2 [17]: −
Growth Index Plate 3 [17]: −
Growth Index Avg [18]: −
Growth Index Plate 1 [18]: −
Growth Index Plate 2 [18]: −
Growth Index Plate 3 [18]: −
Growth Index Avg [19]: +
Growth Index Plate 1 [19]: +
Growth Index Plate 2 [19]: +
Growth Index Plate 3 [19]: +
Growth Index Avg [20]: −
Growth Index Plate 1 [20]: −
Growth Index Plate 2 [20]: −
Growth Index Plate 3 [20]: −
Growth Index Avg [21]: −
Growth Index Plate 1 [21]: −
Growth Index Plate 2 [21]: −
Growth Index Plate 3 [21]: −
Growth Index Avg [22]: −
Growth Index Plate 1 [22]: −
Growth Index Plate 2 [22]: −
Growth Index Plate 3 [22]: −
Growth Index Avg [23]: −
Growth Index Plate 1 [23]: −
Growth Index Plate 2 [23]: −
Growth Index Plate 3 [23]: −
Growth Index Avg [24]: −
Growth Index Plate 1 [24]: −
Growth Index Plate 2 [24]: −
Growth Index Plate 3 [24]: −
Growth Index Avg [25]: −
Growth Index Plate 1 [25]: −
Growth Index Plate 2 [25]: −
Growth Index Plate 3 [25]: −
Growth Index Avg [26]: −
Growth Index Plate 1 [26]: −
Growth Index Plate 2 [26]: −
Growth Index Plate 3 [26]: −
Growth Index Avg [27]: −
Growth Index Plate 1 [27]: −
Growth Index Plate 2 [27]: −
Growth Index Plate 3 [27]: −
Growth Index Avg [28]: −
Growth Index Plate 1 [28]: −
Growth Index Plate 2 [28]: −
Growth Index Plate 3 [28]: −
Growth Index Avg [29]: −
Growth Index Plate 1 [29]: −
Growth Index Plate 2 [29]: −
Growth Index Plate 3 [29]: −
Growth Index Avg [30]: −
Growth Index Plate 1 [30]: −
Growth Index Plate 2 [30]: −
Growth Index Plate 3 [30]: −
growth of P. Acnes in combination with 15-HETrE, compared with 15-HETrE used alone (in combination with 15-HETrE): did not reduce the growth
